According to ChEMBL document CHEMBL5303769, “Data for DCP probe JNJ-42226314” (2023):
Blank lines part the entries; values can stand above or below the compound they belong to.

How the values were obtained:
[1] = target: T1, Muscarinic acetylcholine receptor M3 (Homo sapiens, UniProt P20309); assay: GPCRScan assay: inhibition of M3; design: radioligand conc. used [nm] 0.3 – 1.0, parental cells stable CHO
Tryptase (Homo sapiens) = Tryptase (Homo sapiens) (UniProt Q9BZJ3+Q15661+Q9NRR2); assay: Tryptase Serine protease panel; conditions: Compound concentration 10.0 uM
[2] = target: Neutrophil elastase (Homo sapiens) (UniProt P08246); assay: Elastase Serine protease panel; conditions: Compound concentration 10.0 uM
[3] = target: Plasminogen (Homo sapiens) (UniProt P00747); assay: Plasmin Serine protease panel; conditions: Compound concentration 10.0 uM
[4] = target: Chymotrypsin (Homo sapiens) (UniProt Q99895+P17538+P40313+Q6GPI1); assay: Chymotrypsin Serine protease panel; type: protein assay; conditions: Compound concentration 10.0 uM
[5] = target: Tissue-type plasminogen activator (Homo sapiens) (UniProt P00750); assay: TPA Serine protease panel; conditions: Compound concentration 10.0 uM
[6] = target: Kallikrein-1 (Homo sapiens) (UniProt P06870); assay: Kallikrein Serine protease panel; conditions: Compound concentration 10.0 uM
[7] = target: Prothrombin (Homo sapiens) (UniProt P00734); assay: Thrombin Serine protease panel; conditions: Compound concentration 10.0 uM
Chymase (Homo sapiens) = Chymase (Homo sapiens) (UniProt P23946); assay: Chymase Serine protease panel; conditions: Compound concentration 10.0 uM
[8] = target: Cathepsin G (Homo sapiens) (UniProt P08311); assay: Cathepsin G Serine protease panel; conditions: Compound concentration 10.0 uM
[9] = target: Myeloblastin (Homo sapiens) (UniProt P24158); assay: Proteinase 3 Serine protease panel; conditions: Compound concentration 10.0 uM
[10] = target: Coagulation factor VII (Homo sapiens) (UniProt P08709); assay: Factor VIIa Serine protease panel; conditions: Compound concentration 10.0 uM
[11] = target: Urokinase-type plasminogen activator (Homo sapiens) (UniProt P00749); assay: Urokinase Serine protease panel; conditions: Compound concentration 10.0 uM
Homo sapiens = species: Homo sapiens; assay: Streptokinase Serine protease panel; conditions: Compound concentration 10.0 uM
[12] = target: Serine protease 1 (Homo sapiens) (UniProt P07477); assay: Trypsin Serine protease panel; conditions: Compound concentration 10.0 uM
[13] = target: Coagulation factor X (Homo sapiens) (UniProt P00742); assay: Factor Xa Serine protease panel; conditions: concentration not given here
[14] = target: Monoacylglycerol lipase ABHD6 (Homo sapiens, UniProt Q9BV23); assay: hABHD6 Endocannabinoid related and lipase panel
[15] = target: Lysophosphatidylserine lipase ABHD12 (Homo sapiens, UniProt Q8N2K0); assay: hABHD12 Endocannabinoid related and lipase panel
Endothelial lipase = Endothelial lipase (Homo sapiens, UniProt Q9Y5X9); assay: Endothelial lipase Endocannabinoid related and lipase panel
[16] = target: Hepatic triacylglycerol lipase (Homo sapiens, UniProt P11150); assay: Hepatic lipase Endocannabinoid related and lipase panel
Lipoprotein lipase = Lipoprotein lipase (Homo sapiens, UniProt P06858); assay: Lipoprotein lipase Endocannabinoid related and lipase panel
[17] = target: 5-hydroxytryptamine receptor 1A (Homo sapiens) (UniProt P08908); conditions: Compound concentration 10.0 uM
[18] = target: 5-hydroxytryptamine receptor 1B (Homo sapiens) (UniProt P28222); conditions: Compound concentration 10.0 uM
[19] = target: 5-hydroxytryptamine receptor 1D (Homo sapiens) (UniProt P28221); conditions: Compound concentration 10.0 uM
[20] = target: 5-hydroxytryptamine receptor 2A (Homo sapiens) (UniProt P28223); conditions: Compound concentration 10.0 uM
[21] = target: 5-hydroxytryptamine receptor 2B (Homo sapiens) (UniProt P41595); conditions: Compound concentration 10.0 uM
[22] = target: 5-hydroxytryptamine receptor 3A (Homo sapiens) (UniProt P46098); conditions: Compound concentration 10.0 uM
[23] = target: 5-hydroxytryptamine receptor 5A (Homo sapiens) (UniProt P47898); conditions: Compound concentration 10.0 uM
[24] = target: 5-hydroxytryptamine receptor 6 (Homo sapiens) (UniProt P50406); conditions: Compound concentration 10.0 uM
[25] = target: 5-hydroxytryptamine receptor 7 (Homo sapiens) (UniProt P34969); conditions: Compound concentration 10.0 uM
[26] = target: D(2) dopamine receptor (Homo sapiens) (UniProt P14416); conditions: Compound concentration 10.0 uM
[27] = target: D(3) dopamine receptor (Homo sapiens) (UniProt P35462); conditions: Compound concentration 10.0 uM
[28] = target: D(4) dopamine receptor (Homo sapiens) (UniProt P21917); conditions: Compound concentration 10.0 uM
D(1B) dopamine receptor [29] = target: T2, D(1B) dopamine receptor (Homo sapiens, UniProt P21918); conditions: Compound concentration 10.0 uM
[30] = target: Sodium-dependent serotonin transporter (Homo sapiens) (UniProt P31645); conditions: Compound concentration 10.0 uM
[31] = target: Sodium-dependent noradrenaline transporter (Homo sapiens) (UniProt P23975); conditions: Compound concentration 10.0 uM
[32] = target: Sodium-dependent dopamine transporter (Homo sapiens) (UniProt Q01959); conditions: Compound concentration 10.0 uM
[33] = target: Mu-type opioid receptor (Homo sapiens) (UniProt P35372); conditions: Compound concentration 10.0 uM
[34] = target: Delta-type opioid receptor (Homo sapiens) (UniProt P41143); conditions: Compound concentration 10.0 uM
[35] = target: Kappa-type opioid receptor (Homo sapiens) (UniProt P41145); conditions: Compound concentration 10.0 uM
[36] = target: Histamine H1 receptor (Homo sapiens) (UniProt P35367); conditions: Compound concentration 10.0 uM
[37] = target: Histamine H2 receptor (Homo sapiens) (UniProt P25021); conditions: Compound concentration 10.0 uM
[38] = target: Histamine H3 receptor (Homo sapiens) (UniProt Q9Y5N1); conditions: Compound concentration 10.0 uM
[39] = target: Histamine H4 receptor (Homo sapiens) (UniProt Q9H3N8); conditions: Compound concentration 10.0 uM
[40] = target: Alpha-1A adrenergic receptor (Homo sapiens) (UniProt P35348); conditions: Compound concentration 10.0 uM
[41] = target: Alpha-1B adrenergic receptor (Homo sapiens) (UniProt P35368); conditions: Compound concentration 10.0 uM
[42] = target: Alpha-2A adrenergic receptor (Homo sapiens) (UniProt P08913); conditions: Compound concentration 10.0 uM
[43] = target: Alpha-2B adrenergic receptor (Homo sapiens) (UniProt P18089); conditions: Compound concentration 10.0 uM
[44] = target: Alpha-2C adrenergic receptor (Homo sapiens) (UniProt P18825); conditions: Compound concentration 10.0 uM
[45] = target: Beta-1 adrenergic receptor (Homo sapiens) (UniProt P08588); conditions: Compound concentration 10.0 uM
[46] = target: Beta-2 adrenergic receptor (Homo sapiens) (UniProt P07550); conditions: Compound concentration 10.0 uM
[47] = target: Muscarinic acetylcholine receptor M2 (Homo sapiens) (UniProt P08172); conditions: Compound concentration 10.0 uM
[48] = target: T1, Muscarinic acetylcholine receptor M3; conditions: Compound concentration 10.0 uM
[49] = target: Muscarinic acetylcholine receptor M4 (Homo sapiens) (UniProt P08173); conditions: Compound concentration 10.0 uM
[50] = target: Muscarinic acetylcholine receptor M5 (Homo sapiens) (UniProt P08912); conditions: Compound concentration 10.0 uM
[51] = target: Beta-3 adrenergic receptor (Homo sapiens) (UniProt P13945); conditions: Compound concentration 10.0 uM
Rattus norvegicus = species: Rattus norvegicus; conditions: Compound concentration 10.0 uM
[52] = target: Alpha-1D adrenergic receptor (Homo sapiens) (UniProt P25100); conditions: Compound concentration 10.0 uM
[53] = target: Sigma intracellular receptor 2 (Homo sapiens) (UniProt Q5BJF2); conditions: Compound concentration 10.0 uM
[54] = target: Sigma non-opioid intracellular receptor 1 (Homo sapiens) (UniProt Q99720); conditions: Compound concentration 10.0 uM
D(1B) dopamine receptor [55] = target: T2, D(1B) dopamine receptor; assay: GPCRScan assay: inhibition of D5; design: radioligand conc. used [nm] 2.0 – 3.0, parental cells HEKT
[56] = target: 5-hydroxytryptamine receptor 2C (Homo sapiens) (UniProt P28335); conditions: Compound concentration 10.0 uM
[57] = target: GABA-A receptor; anion channel (Rattus norvegicus) (UniProt O09028+P15431+P18506+P18508+P19969+P20236+P23574+P23576+P28471+P28473+P30191+P62813+P63079+P63138+Q91ZM7+Q9ES14); conditions: Compound concentration 10.0 uM
[58] = target: Monoacylglycerol lipase (Homo sapiens); assay: Fluorometric Assay (Inhibition of 4MU-B cleavage)

5-hydroxytryptamine receptor 5A (Homo sapiens), sequence (P47898 whole entry): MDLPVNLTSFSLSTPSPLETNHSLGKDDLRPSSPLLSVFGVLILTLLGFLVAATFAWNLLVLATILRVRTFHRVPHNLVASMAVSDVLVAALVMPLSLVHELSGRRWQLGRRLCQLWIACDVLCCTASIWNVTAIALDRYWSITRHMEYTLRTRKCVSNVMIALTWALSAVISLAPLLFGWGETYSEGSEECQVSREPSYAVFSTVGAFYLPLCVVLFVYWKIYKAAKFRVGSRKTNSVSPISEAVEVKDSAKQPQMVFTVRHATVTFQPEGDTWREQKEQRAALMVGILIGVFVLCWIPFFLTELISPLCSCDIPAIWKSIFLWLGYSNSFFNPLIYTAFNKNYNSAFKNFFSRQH
Delta-type opioid receptor (Homo sapiens), sequence (P41143 whole entry): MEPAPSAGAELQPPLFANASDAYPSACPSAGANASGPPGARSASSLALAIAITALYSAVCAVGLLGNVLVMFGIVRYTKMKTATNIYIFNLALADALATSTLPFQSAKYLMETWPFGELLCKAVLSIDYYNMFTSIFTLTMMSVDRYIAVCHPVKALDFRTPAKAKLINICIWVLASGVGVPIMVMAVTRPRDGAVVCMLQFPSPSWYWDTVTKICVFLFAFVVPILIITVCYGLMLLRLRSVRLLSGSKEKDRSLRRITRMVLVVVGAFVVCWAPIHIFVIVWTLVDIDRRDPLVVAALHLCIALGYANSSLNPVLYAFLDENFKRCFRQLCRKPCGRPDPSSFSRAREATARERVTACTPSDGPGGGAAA
Alpha-2A adrenergic receptor (Homo sapiens), sequence (P08913 whole entry): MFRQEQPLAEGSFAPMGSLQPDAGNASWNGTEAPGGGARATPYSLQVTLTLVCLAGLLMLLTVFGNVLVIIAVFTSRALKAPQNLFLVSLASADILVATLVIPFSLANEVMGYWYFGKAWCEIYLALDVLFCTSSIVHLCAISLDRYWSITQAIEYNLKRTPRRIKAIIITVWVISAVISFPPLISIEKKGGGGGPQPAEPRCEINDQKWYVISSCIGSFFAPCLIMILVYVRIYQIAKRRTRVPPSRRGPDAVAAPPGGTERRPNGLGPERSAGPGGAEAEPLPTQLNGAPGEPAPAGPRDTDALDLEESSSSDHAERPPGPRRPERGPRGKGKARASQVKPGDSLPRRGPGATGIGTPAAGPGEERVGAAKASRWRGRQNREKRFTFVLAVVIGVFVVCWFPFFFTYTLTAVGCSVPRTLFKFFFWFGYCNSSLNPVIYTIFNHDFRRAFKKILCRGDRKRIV
Kappa-type opioid receptor (Homo sapiens), sequence (P41145 whole entry): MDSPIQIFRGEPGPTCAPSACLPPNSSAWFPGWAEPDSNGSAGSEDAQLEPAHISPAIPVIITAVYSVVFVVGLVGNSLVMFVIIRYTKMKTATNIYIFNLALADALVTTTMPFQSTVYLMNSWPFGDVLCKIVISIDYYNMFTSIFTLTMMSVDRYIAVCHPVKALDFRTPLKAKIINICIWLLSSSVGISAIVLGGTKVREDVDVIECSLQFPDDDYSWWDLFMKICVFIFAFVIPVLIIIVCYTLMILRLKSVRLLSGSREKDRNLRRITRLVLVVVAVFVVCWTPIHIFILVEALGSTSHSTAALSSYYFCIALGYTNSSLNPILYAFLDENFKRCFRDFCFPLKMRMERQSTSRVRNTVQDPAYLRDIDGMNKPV
Beta-2 adrenergic receptor (Homo sapiens), sequence (P07550 whole entry, looked up): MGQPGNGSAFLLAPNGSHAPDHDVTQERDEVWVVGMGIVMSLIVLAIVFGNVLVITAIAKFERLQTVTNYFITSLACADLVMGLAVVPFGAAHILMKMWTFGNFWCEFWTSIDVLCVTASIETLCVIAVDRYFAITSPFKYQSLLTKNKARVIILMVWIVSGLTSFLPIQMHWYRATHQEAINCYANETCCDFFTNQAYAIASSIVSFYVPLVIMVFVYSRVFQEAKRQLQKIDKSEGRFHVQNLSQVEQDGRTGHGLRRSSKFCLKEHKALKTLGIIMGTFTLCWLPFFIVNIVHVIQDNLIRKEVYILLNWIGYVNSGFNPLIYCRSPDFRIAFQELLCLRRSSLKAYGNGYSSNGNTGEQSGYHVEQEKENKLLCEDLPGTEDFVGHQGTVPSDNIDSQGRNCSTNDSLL
5-hydroxytryptamine receptor 1D (Homo sapiens), sequence (P28221 whole entry): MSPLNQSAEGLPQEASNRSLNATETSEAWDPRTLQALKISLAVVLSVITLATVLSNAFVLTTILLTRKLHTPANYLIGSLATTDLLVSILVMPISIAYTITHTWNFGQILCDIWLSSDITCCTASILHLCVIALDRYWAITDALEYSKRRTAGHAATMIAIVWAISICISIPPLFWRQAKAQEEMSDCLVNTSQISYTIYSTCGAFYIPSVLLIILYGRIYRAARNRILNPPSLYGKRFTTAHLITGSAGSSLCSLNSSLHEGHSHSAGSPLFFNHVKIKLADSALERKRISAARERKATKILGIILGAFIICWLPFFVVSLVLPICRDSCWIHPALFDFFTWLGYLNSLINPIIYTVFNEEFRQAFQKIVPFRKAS
5-hydroxytryptamine receptor 7 (Homo sapiens), sequence (P34969 whole entry): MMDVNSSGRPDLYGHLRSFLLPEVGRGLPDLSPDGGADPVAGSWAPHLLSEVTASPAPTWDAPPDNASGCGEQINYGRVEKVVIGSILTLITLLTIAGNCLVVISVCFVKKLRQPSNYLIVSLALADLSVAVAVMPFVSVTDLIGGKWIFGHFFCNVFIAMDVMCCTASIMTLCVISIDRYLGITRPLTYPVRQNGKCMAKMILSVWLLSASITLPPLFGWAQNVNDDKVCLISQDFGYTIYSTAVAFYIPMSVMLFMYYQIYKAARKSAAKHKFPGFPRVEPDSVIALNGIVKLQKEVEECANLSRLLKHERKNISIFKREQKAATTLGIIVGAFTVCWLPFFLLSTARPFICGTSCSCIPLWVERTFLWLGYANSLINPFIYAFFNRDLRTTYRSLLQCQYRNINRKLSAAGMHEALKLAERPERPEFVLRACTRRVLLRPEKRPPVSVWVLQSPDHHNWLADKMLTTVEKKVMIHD
D(2) dopamine receptor (Homo sapiens), sequence (P14416 whole entry): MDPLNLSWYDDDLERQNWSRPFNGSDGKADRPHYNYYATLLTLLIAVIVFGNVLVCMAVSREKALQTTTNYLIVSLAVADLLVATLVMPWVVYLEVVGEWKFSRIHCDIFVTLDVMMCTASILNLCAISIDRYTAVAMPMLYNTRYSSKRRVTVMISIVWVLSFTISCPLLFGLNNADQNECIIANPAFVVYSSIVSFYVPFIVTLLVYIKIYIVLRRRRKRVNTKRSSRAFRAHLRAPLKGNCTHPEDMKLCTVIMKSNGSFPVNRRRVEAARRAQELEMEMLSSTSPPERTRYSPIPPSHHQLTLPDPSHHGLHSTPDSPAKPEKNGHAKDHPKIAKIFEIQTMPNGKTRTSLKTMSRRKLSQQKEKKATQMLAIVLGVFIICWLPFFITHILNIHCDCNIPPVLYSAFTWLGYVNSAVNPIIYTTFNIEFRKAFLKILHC
5-hydroxytryptamine receptor 6 (Homo sapiens), sequence (P50406 whole entry): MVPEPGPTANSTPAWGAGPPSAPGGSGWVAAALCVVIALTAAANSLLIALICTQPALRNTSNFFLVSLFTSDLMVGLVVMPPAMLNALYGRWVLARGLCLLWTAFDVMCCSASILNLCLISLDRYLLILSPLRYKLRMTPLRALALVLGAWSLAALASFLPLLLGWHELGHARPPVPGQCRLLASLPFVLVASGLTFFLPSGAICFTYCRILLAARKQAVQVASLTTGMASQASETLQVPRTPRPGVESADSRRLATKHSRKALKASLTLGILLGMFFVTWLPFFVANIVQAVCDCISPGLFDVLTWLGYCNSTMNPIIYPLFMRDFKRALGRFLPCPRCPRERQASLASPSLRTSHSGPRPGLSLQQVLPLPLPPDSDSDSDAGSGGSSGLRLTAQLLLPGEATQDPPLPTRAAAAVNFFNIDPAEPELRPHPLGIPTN
Sodium-dependent noradrenaline transporter (Homo sapiens), sequence (P23975 whole entry): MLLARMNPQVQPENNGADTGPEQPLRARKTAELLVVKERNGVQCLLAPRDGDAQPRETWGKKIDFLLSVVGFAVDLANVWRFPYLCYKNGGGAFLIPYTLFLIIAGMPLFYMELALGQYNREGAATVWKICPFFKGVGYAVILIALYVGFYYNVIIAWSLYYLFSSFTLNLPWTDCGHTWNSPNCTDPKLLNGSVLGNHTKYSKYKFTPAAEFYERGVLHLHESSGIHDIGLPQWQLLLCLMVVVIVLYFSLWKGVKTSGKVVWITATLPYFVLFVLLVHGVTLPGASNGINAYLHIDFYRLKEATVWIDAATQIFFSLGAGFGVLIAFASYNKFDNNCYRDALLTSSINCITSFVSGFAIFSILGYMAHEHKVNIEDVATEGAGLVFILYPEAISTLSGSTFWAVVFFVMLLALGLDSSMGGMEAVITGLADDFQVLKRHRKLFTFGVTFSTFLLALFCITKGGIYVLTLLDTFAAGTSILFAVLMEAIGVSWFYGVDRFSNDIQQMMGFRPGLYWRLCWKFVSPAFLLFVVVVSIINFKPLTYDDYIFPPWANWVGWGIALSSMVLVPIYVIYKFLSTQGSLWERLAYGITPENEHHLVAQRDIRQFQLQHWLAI
Muscarinic acetylcholine receptor M2 (Homo sapiens), sequence (P08172 whole entry): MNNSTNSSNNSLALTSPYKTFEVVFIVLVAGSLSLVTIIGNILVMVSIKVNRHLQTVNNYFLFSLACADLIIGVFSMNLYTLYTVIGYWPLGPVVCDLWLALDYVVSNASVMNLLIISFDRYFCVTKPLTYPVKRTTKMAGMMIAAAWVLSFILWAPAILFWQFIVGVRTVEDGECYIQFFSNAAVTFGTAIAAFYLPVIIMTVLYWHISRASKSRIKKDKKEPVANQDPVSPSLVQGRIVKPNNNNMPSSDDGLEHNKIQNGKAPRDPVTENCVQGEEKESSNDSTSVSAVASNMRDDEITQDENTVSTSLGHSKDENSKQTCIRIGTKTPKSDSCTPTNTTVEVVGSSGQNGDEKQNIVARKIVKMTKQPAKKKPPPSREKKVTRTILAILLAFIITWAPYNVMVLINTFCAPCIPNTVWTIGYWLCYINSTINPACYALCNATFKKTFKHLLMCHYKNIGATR

Ki [1]: > 10 µM
pKi [1]: < 5
inhibition (Tryptase (Homo sapiens)): 2%
inhibition [2]: 4%
inhibition [3]: 4%
inhibition [4]: -3%
inhibition [5]: 6%
inhibition [6]: 4%
inhibition [7]: -1%
inhibition (Chymase (Homo sapiens)): 11%
inhibition [8]: 13%
inhibition [9]: 7%
inhibition [10]: -5%
inhibition [11]: 2%
inhibition (Homo sapiens): 1%
inhibition [12]: -10%
inhibition [13]: 0%
IC50 [14]: > 10 µM
IC50 [15]: > 10 µM
IC50 (Endothelial lipase): > 30 µM
IC50 [16]: > 30 µM
IC50 (Lipoprotein lipase): > 30 µM
inhibition [17]: 11.6%
inhibition [18]: 6.33%
inhibition [19]: 18.2%
inhibition [20]: 7.06%
inhibition [21]: 8.47%
inhibition [22]: 19.3%
inhibition [23]: 17.7%
inhibition [24]: -9.24%
inhibition [25]: 12.8%
inhibition [26]: -9.71%
inhibition [27]: 1.99%
inhibition [28]: 0.01%
inhibition (D(1B) dopamine receptor [29]): -0.29%
inhibition [30]: 8.15%
inhibition [31]: 8.01%
inhibition [32]: 25.2%
inhibition [33]: 14.5%
inhibition [34]: 9.83%
inhibition [35]: 11.1%
inhibition [36]: 4.93%
inhibition [37]: 2.62%
inhibition [38]: 19.4%
inhibition [39]: -8.52%
inhibition [40]: -2.02%
inhibition [41]: -6.82%
inhibition [42]: 14.2%
inhibition [43]: 9.63%
inhibition [44]: 4.03%
inhibition [45]: -2.68%
inhibition [46]: -2.21%
inhibition [47]: -3.14%
inhibition [48]: 54.7%
inhibition [49]: 1.62%
inhibition [50]: -7.3%
inhibition [51]: 0.7%
inhibition (Rattus norvegicus): -0.52%
inhibition [52]: 9.02%
inhibition [53]: 27.6%
inhibition [54]: 27.6%
Compound: O=C(c1ccc2c(ccn2-c2ccc(F)cc2)c1)N1CC(N2CCN(C(=O)c3nccs3)CC2)C1

Ki (D(1B) dopamine receptor [55]): > 10 µM
pKi (D(1B) dopamine receptor [55]): < 5
inhibition [17]: 18.1%
inhibition [18]: 35%
inhibition [19]: 22.7%
inhibition [20]: 8.77%
inhibition [21]: 8.86%
inhibition [56]: 2.58%
inhibition [22]: 9.93%
inhibition [23]: 11.5%
inhibition [24]: 17%
inhibition [25]: 12.4%
inhibition [26]: 8.15%
inhibition [27]: 11.1%
inhibition [28]: 16%
inhibition [30]: 22.3%
inhibition [31]: 3.51%
inhibition [32]: 43.5%
inhibition [33]: 49.1%
inhibition [34]: 39%
inhibition [35]: 24.2%
inhibition [36]: 29.9%
inhibition [37]: 32.4%
inhibition [38]: 41.2%
inhibition [39]: -7.89%
inhibition [40]: -6.9%
inhibition [41]: -7.67%
inhibition [42]: 23.3%
inhibition [43]: 23%
inhibition [44]: 16.6%
inhibition [45]: -6.07%
inhibition [46]: 0.18%
inhibition [47]: -3.68%
inhibition [48]: 48.9%
inhibition [50]: -4.46%
inhibition [51]: 23.6%
inhibition [57]: 36.5%
inhibition (Rattus norvegicus): 38%
inhibition [52]: 10.4%
inhibition [53]: 43.6%
inhibition [54]: 37.1%
IC50 [58]: > 10 µM (not active)
Compound: Cc1cc(C(=O)N2CCN(C3CN(C(=O)c4ccc(-c5ccccc5)cc4)C3)CC2)no1
